These compounds were tested against T1, human PAH with the R408W mutation (Homo sapiens, UniProt P00439, R408W) (assay: Cell Based Phenylalanine Flux Assay). Settings: A375 cells expressing human R408W PAH; 24 hrs compound incubation; 13C-Tyrosine by LC-MS; average where tested multiple times; read-out: AC50.
T1 construct: expressed in transfected cells
T1 sequence (P00439 1-452 R408W): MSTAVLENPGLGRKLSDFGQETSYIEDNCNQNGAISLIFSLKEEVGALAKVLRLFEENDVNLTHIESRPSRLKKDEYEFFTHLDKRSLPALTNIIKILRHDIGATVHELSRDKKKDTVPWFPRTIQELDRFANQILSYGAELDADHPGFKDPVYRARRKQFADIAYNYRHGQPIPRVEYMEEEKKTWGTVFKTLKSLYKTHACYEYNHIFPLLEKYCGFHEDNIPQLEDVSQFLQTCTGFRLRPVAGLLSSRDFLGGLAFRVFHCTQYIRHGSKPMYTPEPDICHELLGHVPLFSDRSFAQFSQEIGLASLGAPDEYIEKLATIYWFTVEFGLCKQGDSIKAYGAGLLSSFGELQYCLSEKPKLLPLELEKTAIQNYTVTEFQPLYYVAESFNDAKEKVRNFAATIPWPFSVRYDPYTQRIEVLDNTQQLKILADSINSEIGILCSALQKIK
Parameters: scale not given here
`O=C(c1cncs1)N1CCc2[nH]cnc2[C@@H]1c1nc2cc(F)ccc2s1` [Example 1194, (R)-(4-(5-fluorobenzo[d]thiazol-2-yl)-6,7-dihydro-1H-imidazo[4,5-c]pyridin-5(4H)-yl)(thiazol-5-yl)methanone] showed an AC50 of over 5000 nM.
`Cc1cccc2sc([C@@H]3c4nc[nH]c4CCN3C(=O)c3ocnc3C(F)F)nc12` [Example 2011] gave an AC50 of under 500 nM.
In the case of `O=C(c1nncs1)N1CCc2[nH]cnc2[C@@H]1c1nc2ccc(Cl)cc2[nH]1` [Example 957, (R)-(4-(6-chloro-1H-benzo[d]imidazol-2-yl)-6,7-dihydro-1H-imidazo[4,5-c]pyridin-5(4H)-yl)(1,3,4-thiadiazol-2-yl)methanone], the AC50 was over 5000 nM.
`CN(C)CCc1ccc2c(C(=O)N3CCc4[nH]cnc4[C@H]3c3nc4ccccc4s3)cnn2c1` [Example 1453] gave an AC50 of under 500 nM.
With `COCCc1ccc2c(C(=O)N3CCc4[nH]cnc4[C@H]3c3nc4ccccc4s3)c(C#N)nn2c1` [Example 1867, (S)-3-(4-(benzo[d]thiazol-2-yl)-4,5,6,7-tetrahydro-1H-imidazo[4,5-c]pyridine-5-carbonyl)-6-(2-methoxyethyl)pyrazolo[1,5-a]pyridine-2-carbonitrile] the AC50 was under 500 nM.
In the case of `Cn1cc(-c2nc(C(F)F)c(C(=O)N3CCc4[nH]cnc4[C@H]3c3nc4ccccc4s3)o2)cn1` [Example 1799], the AC50 was under 500 nM.
`Cc1cccc2sc([C@H]3c4nc[nH]c4CCN3C(=O)c3ocnc3C(F)(F)F)nc12` [Example 2010, (R)-(4-(4-methylbenzo[d]thiazol-2-yl)-6,7-dihydro-1H-imidazo[4,5-c]pyridin-5(4H)-yl)(4-(trifluoromethyl)oxazol-5-yl)methanone] gave an AC50 of 500 to 1000 nM.
With `Nc1cnc(N2CCc3[nH]cnc3[C@H]2c2nc3ccccc3s2)nc1` (single isomer, unassigned) [Example 1468] the AC50 was 500 to 1000 nM.
`O=C(CCC1CC1)N1CCc2[nH]cnc2[C@H]1c1nc2ccc(F)cc2s1` [Example 1093, (S)-3-cyclopropyl-1-(4-(6-fluorobenzo[d]thiazol-2-yl)-6,7-dihydro-1H-imidazo[4,5-c]pyridin-5(4H)-yl)propan-1-one] was tested, and the AC50 was 500 to 1000 nM.
In the case of `Cc1cccc2sc([C@@H]3c4nc[nH]c4CCN3C(=O)c3ccnn3C)nc12` [Example 2021], the AC50 was 500 to 1000 nM.
For `Cc1cccc2sc([C@H]3c4nc[nH]c4CCN3C(=O)c3ncnn3C)nc12` [Example 2016, (R)-(1-methyl-1H-1,2,4-triazol-5-yl)(4-(4-methylbenzo[d]thiazol-2-yl)-6,7-dihydro-1H-imidazo[4,5-c]pyridin-5(4H)-yl)methanone], the AC50 was over 5000 nM.
`O=C(c1nc(Cl)cs1)N1CCc2[nH]cnc2[C@H]1c1nc2cc(F)ccc2s1` [Example 1297] was tested, and the AC50 was 500 to 1000 nM.
For `O=C(CCc1nccs1)N1CCc2[nH]cnc2[C@@H]1c1nc2ccccc2[nH]1` [Example 901, (R)-1-(4-(1H-benzo[d]imidazol-2-yl)-6,7-dihydro-1H-imidazo[4,5-c]pyridin-5(4H)-yl)-3-(thiazol-2-yl)propan-1-one], the AC50 was over 5000 nM.
`C[C@@H](O)c1nc(C(F)F)c(C(=O)N2CCc3[nH]cnc3[C@@H]2c2nc3c(F)cccc3s2)o1` [Example 1979, (4-(difluoromethyl)-2-((R)-1-hydroxyethyl)oxazol-5-yl)((R)-4-(4-fluorobenzo[d]thiazol-2-yl)-6,7-dihydro-1H-imidazo[4,5-c]pyridin-5(4H)-yl)methanone] showed an AC50 of 500 to 1000 nM.
`CC(C)(O)c1nc(C(F)(F)F)c(C(=O)N2CCCc3[nH]cnc3[C@@H]2c2nc3ccccc3s2)o1` [Example 2124, (R)-(4-(benzo[d]thiazol-2-yl)-7,8-dihydroimidazo[4,5-c]azepin-5(1H,4H,6H)-yl)(2-(2-hydroxypropan-2-yl)-4-(trifluoromethyl)oxazol-5-yl)methanone] showed an AC50 of 1000 to 5000 nM.
With `O=C(c1ccnn1C(F)(F)F)N1CCc2[nH]cnc2[C@@H]1c1nc2c(F)cccc2s1` [Example 2100, (R)-(4-(4-fluorobenzo[d]thiazol-2-yl)-6,7-dihydro-1H-imidazo[4,5-c]pyridin-5(4H)-yl)(1-(trifluoromethyl)-1H-pyrazol-5-yl)methanone] the AC50 was 1000 to 5000 nM.
Work on `N#Cc1ccn2ncc(C(=O)N3CCc4[nH]cnc4[C@H]3c3nc4cc(F)ccc4s3)c2c1` [Example 1160, (S)-3-(4-(5-fluorobenzo[d]thiazol-2-yl)-4,5,6,7-tetrahydro-1H-imidazo[4,5-c]pyridine-5-carbonyl)pyrazolo[1,5-a]pyridine-5-carbonitrile] yielded an AC50 of 500 to 1000 nM.
In the case of `O=C(c1cncs1)N1CCc2[nH]cnc2[C@@H]1c1nc2c(F)cccc2s1` [Example 1218, (R)-(4-(4-fluorobenzo[d]thiazol-2-yl)-6,7-dihydro-1H-imidazo[4,5-c]pyridin-5(4H)-yl)(thiazol-5-yl)methanone], the AC50 was 1000 to 5000 nM.
`Cc1ncoc1C(=O)N1CCCc2[nH]cnc2[C@@H]1c1nc2ccccc2s1` [Example 2130, (R)-(4-(benzo[d]thiazol-2-yl)-7,8-dihydroimidazo[4,5-c]azepin-5(1H,4H,6H)-yl)(4-methyloxazol-5-yl)methanone] showed an AC50 of over 5000 nM.
`Cc1nc(C(C)C)oc1C(=O)N1CCc2[nH]cnc2[C@H]1c1nc2ccccc2s1` [Example 1397] showed an AC50 of under 500 nM.
`COc1cccc(CCCC(=O)N2CCc3[nH]cnc3[C@H]2c2nc3ccccc3[nH]2)c1` [Example 919, (S)-1-(4-(1H-benzo[d]imidazol-2-yl)-6,7-dihydro-1H-imidazo[4,5-c]pyridin-5(4H)-yl)-4-(3-methoxyphenyl)butan-1-one] gave an AC50 of 1000 to 5000 nM.
`O=C(c1nnc(-c2cnn(CC(F)(F)F)c2)o1)N1CCc2[nH]cnc2[C@@H]1c1nc2c(F)cccc2s1` [Example 1843, (R)-(4-(4-fluorobenzo[d]thiazol-2-yl)-6,7-dihydro-1H-imidazo[4,5-c]pyridin-5(4H)-yl)(5-(1-(2,2,2-trifluoroethyl)-1H-pyrazol-4-yl)-1,3,4-oxadiazol-2-yl)methanone] was tested, and the AC50 was 1000 to 5000 nM.
With `Cc1nc(C(C)(C)F)oc1C(=O)N1CCc2[nH]cnc2[C@H]1c1nc2ccccc2s1` [Example 1497] the AC50 was under 500 nM.
For `O=C(CCc1nccs1)N1CCc2[nH]cnc2[C@@H]1c1nc2ccc(Br)cc2[nH]1` [Example 909, (R)-1-(4-(6-bromo-1H-benzo[d]imidazol-2-yl)-6,7-dihydro-1H-imidazo[4,5-c]pyridin-5(4H)-yl)-3-(thiazol-2-yl)propan-1-one], the AC50 was over 5000 nM.

Same assay, conditions: A375 cells expressing human R408W PAH; 24 hrs with compound; 13C-Tyrosine by LC-MS; average where tested multiple times
`CN1CCN(c2nc(C#N)c(C(=O)N3CCc4[nH]cnc4C3c3nc4ccccc4s3)o2)CC1` (stereo not drawn) was tested, and the AC50 was “E, E”.

Same assay, conditions: A375 cells expressing human R408W PAH; 24 hrs with compound; 13C-Tyrosine by LC-MS; average where tested multiple times; read-out: AC50
For `O=C(C1CN(c2ccc(Cl)cc2)C1)N1CCc2[nH]cnc2C1c1nc2ccccc2s1` (stereo not drawn), the AC50 was 1000 to 5000 nM.
For `O=C(c1nc2cc(F)ccc2s1)N1CCc2[nH]cnc2[C@H]1c1nc2ccccc2[nH]1` [(S)-(4-(1H-benzo[d]imidazol-2-yl)-6,7-dihydro-1H-imidazo[4,5-c]pyridin-5(4H)-yl)(5-fluorobenzo[d]thiazol-2-yl)methanone], the AC50 was 1000 to 5000 nM.
`O=C(C1CN(c2ccccn2)C1)N1CCc2[nH]cnc2C1c1nc2c(F)cccc2s1` (stereo not drawn) gave an AC50 of 1000 to 5000 nM.
`COCCNc1nnc(C(=O)N2CCc3[nH]cnc3C2c2nc3ccccc3s2)o1` (stereo not drawn) was tested, and the AC50 was 1000 to 5000 nM.
With `O=C(CCc1nccs1)N1CCc2[nH]cnc2[C@H]1c1nc2cccc(F)c2[nH]1` (single isomer, unassigned) the AC50 was 1000 to 5000 nM.
In the case of `O=C(C1CC1)N1CCc2[nH]cnc2C1c1nc2ccc(F)cc2s1` (stereo not drawn), the AC50 was 1000 to 5000 nM.
`Cc1nc(C=CC2CC2)oc1C(=O)N1CCCc2[nH]cnc2C1c1nc2ccccc2s1` (stereo not drawn) gave an AC50 of over 5000 nM.
`CC(C)(O)c1cc(C(=O)N2CCc3[nH]cnc3C2c2nc3c(F)cccc3s2)ns1` (stereo not drawn) gave an AC50 of 1000 to 5000 nM.
With `O=C(c1nc2ccncc2s1)N1CCc2[nH]cnc2C1c1nc2ccccc2[nH]1` (stereo not drawn) the AC50 was over 5000 nM.
In the case of `O=C(C1CC1)N1CCc2[nH]cnc2C1c1nc2ccc(Br)cc2s1` (stereo not drawn), the AC50 was over 5000 nM.
In the case of `COCc1cc(C(=O)N2CCc3[nH]cnc3C2c2nc3c(F)cccc3s2)[nH]n1` (stereo not drawn), the AC50 was 1000 to 5000 nM.
`Cc1nc(C(C)(C)O)oc1C(=O)N1CC(C)c2[nH]cnc2C1c1nc2c(F)cccc2s1` (stereo not drawn) showed an AC50 of over 5000 nM.
Compound `COc1ccn2ncc(C(=O)N3CCc4[nH]cnc4[C@H]3c3nc4ccccc4[nH]3)c2c1` [(S)-(4-(1H-benzo[d]imidazol-2-yl)-6,7-dihydro-1H-imidazo[4,5-c]pyridin-5(4H)-yl)(5-methoxypyrazolo[1,5-a]pyridin-3-yl)methanone] has an AC50 of 1000 to 5000 nM.
Work on `Cc1nnc(C(=O)N2CCc3[nH]cnc3C2c2nc3c(F)cccc3s2)n1C` (stereo not drawn) yielded an AC50 of 1000 to 5000 nM.
`O=C(c1cnn2cccc(F)c12)N1CCc2[nH]cnc2C1c1nc2ccc(F)cc2s1` (stereo not drawn) was tested, and the AC50 was 1000 to 5000 nM.
With `CC(=O)Cn1ncc(C(=O)N2CCc3[nH]cnc3[C@@H]2c2nc3c(F)cccc3s2)c1Cl` (single isomer, unassigned) the AC50 was over 5000 nM.
Work on `O=C(c1ocnc1CO)N1CC2(CC2)c2[nH]cnc2C1c1nc2ccccc2s1` (stereo not drawn) yielded an AC50 of over 5000 nM.
For `Cc1nc(-c2ccccn2)oc1C(=O)N1CC2(CC2)c2[nH]cnc2[C@H]1c1nc2ccccc2s1` (single isomer, unassigned), the AC50 was 1000 to 5000 nM.
Work on `CC1CN(C(=O)c2cnc(CN(C)C)o2)C(c2nc3ccccc3s2)c2nc[nH]c21` (stereo not drawn) yielded an AC50 of over 5000 nM.
With `Cn1ncc(C(=O)N2CCc3[nH]cnc3[C@@H]2c2nc3c(F)cccc3s2)c1Br` (single isomer, unassigned) the AC50 was over 5000 nM.
